In ChEMBL document CHEMBL3885881, “DrugMatrix”:

Organism: Rattus norvegicus
Assay: DrugMatrix - Regimen: Daily Repeat
Format: toxicity, organism-based, Sprague-Dawley
Parameters: regimen Daily Repeat, gender Male, age 6-8 weeks
Details: in vivo, po, route oral GAVAGE, vehicle 100 % WATER; for ABSOLUTE BASOPHIL / ABSOLUTE EOSINOPHIL / ABSOLUTE LYMPHOCYTE / ABSOLUTE MONOCYTE / ABSOLUTE SEGMENTED NEUTROPHIL / BASOPHIL / EOSINOPHIL / ERYTHROCYTE COUNT / HEMATOCRIT / HEMOGLOBIN / LEUKOCYTE COUNT / LYMPHOCYTE / MEAN CORPUSCULAR HEMOGLOBIN / MEAN CORPUSCULAR HEMOGLOBIN CONCENTRATION / MEAN CORPUSCULAR VOLUME / MONOCYTE / NEUTROPHIL / NUCLEATED RED BLOOD CELLS / PLATELET COUNT: tissue Blood; for ALANINE AMINOTRANSFERASE / ALBUMIN / ALKALINE PHOSPHATASE / ASPARTATE AMINOTRANSFERASE / BLOOD UREA NITROGEN / CARBON DIOXIDE / CHLORIDE / CHOLESTEROL / CREATINE PHOSPHOKINASE / CREATININE / GLUCOSE / LACTATE DEHYDROGENASE / LIPASE / PHOSPHORUS / POTASSIUM / SODIUM / TOTAL BILIRUBIN / TOTAL PROTEIN / URIC ACID: tissue Plasma
[1] = 0 mg/kg, 72 h, dose level Control, time 3 day
[2] = 0 mg/kg, 120 h, dose level Control, time 5 day
[3] = 3525 mg/kg, 72 h, dose level High, time 3 day
[4] = 3525 mg/kg, 120 h, dose level High, time 5 day

SMILES: OCCO [ETHYLENE GLYCOL]
- ABSOLUTE BASOPHIL [1]: 0 CELLS/uL
- ABSOLUTE EOSINOPHIL [1]: 0 CELLS/uL
- ABSOLUTE LYMPHOCYTE [1]: 7802.17 CELLS/uL
- ABSOLUTE MONOCYTE [1]: 13.5 CELLS/uL
- ABSOLUTE SEGMENTED NEUTROPHIL [1]: 617.67 CELLS/uL
- BASOPHIL [1]: 0%
- EOSINOPHIL [1]: 0%
- ERYTHROCYTE COUNT [1]: 5.35 x10E6/uL
- HEMATOCRIT [1]: 33.02%
- HEMOGLOBIN [1]: 12.88 G/DL
- LEUKOCYTE COUNT [1]: 8.43 x10E3/uL
- LYMPHOCYTE [1]: 92.67%
- MEAN CORPUSCULAR HEMOGLOBIN [1]: 24.12 pg
- MEAN CORPUSCULAR HEMOGLOBIN CONCENTRATION [1]: 39.03 G/DL
- MEAN CORPUSCULAR VOLUME [1]: 61.8 fL
- MONOCYTE [1]: 0.17%
- NEUTROPHIL [1]: 7.17%
- NUCLEATED RED BLOOD CELLS [1]: 0 /100WBC
- PLATELET COUNT [1]: 1124.83 x10E3/uL
- ALANINE AMINOTRANSFERASE [1]: 54.17 u/L
- ALBUMIN [1]: 4.07 G/DL
- ALKALINE PHOSPHATASE [1]: 383.83 u/L
- ASPARTATE AMINOTRANSFERASE [1]: 82.17 u/L
- BLOOD UREA NITROGEN [1]: 13.67 mg/dL
- CARBON DIOXIDE [1]: 31 mmol/L
- CHLORIDE [1]: 100.83 MEQ/L
- CHOLESTEROL [1]: 65.17 mg/dL
- CREATINE PHOSPHOKINASE [1]: 228.33 u/L
- CREATININE [1]: 0.12 mg/dL
- GLUCOSE [1]: 148 mg/dL
- LACTATE DEHYDROGENASE [1]: 97.83 u/L
- LIPASE [1]: 9.17 u/L
- PHOSPHORUS [1]: 9.75 mg/dL
- POTASSIUM [1]: 5.85 MEQ/L
- SODIUM [1]: 147.02 MEQ/L
- TOTAL BILIRUBIN [1]: 0.18 mg/dL
- TOTAL PROTEIN [1]: 6.1 G/DL
- URIC ACID [1]: 0.5 mg/dL
- ABSOLUTE BASOPHIL [2]: 0 CELLS/uL
- ABSOLUTE EOSINOPHIL [2]: 0 CELLS/uL
- ABSOLUTE LYMPHOCYTE [2]: 10538 CELLS/uL
- ABSOLUTE MONOCYTE [2]: 15.83 CELLS/uL
- ABSOLUTE SEGMENTED NEUTROPHIL [2]: 762.83 CELLS/uL
- BASOPHIL [2]: 0%
- EOSINOPHIL [2]: 0%
- ERYTHROCYTE COUNT [2]: 5.49 x10E6/uL
- HEMATOCRIT [2]: 34.63%
- HEMOGLOBIN [2]: 13.72 G/DL
- LEUKOCYTE COUNT [2]: 11.32 x10E3/uL
- LYMPHOCYTE [2]: 92.67%
- MEAN CORPUSCULAR HEMOGLOBIN [2]: 24.97 pg
- MEAN CORPUSCULAR HEMOGLOBIN CONCENTRATION [2]: 39.57 G/DL
- MEAN CORPUSCULAR VOLUME [2]: 63.05 fL
- MONOCYTE [2]: 0.17%
- NEUTROPHIL [2]: 7.17%
- NUCLEATED RED BLOOD CELLS [2]: 0.17 /100WBC
- PLATELET COUNT [2]: 802 x10E3/uL
- ALANINE AMINOTRANSFERASE [2]: 50.5 u/L
- ALBUMIN [2]: 4.07 G/DL
- ALKALINE PHOSPHATASE [2]: 336.83 u/L
- ASPARTATE AMINOTRANSFERASE [2]: 81 u/L
- BLOOD UREA NITROGEN [2]: 14.17 mg/dL
- CARBON DIOXIDE [2]: 32 mmol/L
- CHLORIDE [2]: 98.33 MEQ/L
- CHOLESTEROL [2]: 69.17 mg/dL
- CREATINE PHOSPHOKINASE [2]: 253.33 u/L
- CREATININE [2]: 0.13 mg/dL
- GLUCOSE [2]: 153.67 mg/dL
- LACTATE DEHYDROGENASE [2]: 157 u/L
- LIPASE [2]: 9 u/L
- PHOSPHORUS [2]: 10.78 mg/dL
- POTASSIUM [2]: 6.11 MEQ/L
- SODIUM [2]: 144.57 MEQ/L
- TOTAL BILIRUBIN [2]: 0.15 mg/dL
- TOTAL PROTEIN [2]: 6.05 G/DL
- URIC ACID [2]: 0.73 mg/dL
- ABSOLUTE BASOPHIL [3]: 0 CELLS/uL
- ABSOLUTE EOSINOPHIL [3]: 0 CELLS/uL
- ABSOLUTE LYMPHOCYTE [3]: 6464 CELLS/uL
- ABSOLUTE MONOCYTE [3]: 70.67 CELLS/uL
- ABSOLUTE SEGMENTED NEUTROPHIL [3]: 598.67 CELLS/uL
- BASOPHIL [3]: 0%
- EOSINOPHIL [3]: 0%
- ERYTHROCYTE COUNT [3]: 5.57 x10E6/uL
- HEMATOCRIT [3]: 33.43%
- HEMOGLOBIN [3]: 13.07 G/DL
- LEUKOCYTE COUNT [3]: 7.13 x10E3/uL
- LYMPHOCYTE [3]: 90.67%
- MEAN CORPUSCULAR HEMOGLOBIN [3]: 23.5 pg
- MEAN CORPUSCULAR HEMOGLOBIN CONCENTRATION [3]: 39.1 G/DL
- MEAN CORPUSCULAR VOLUME [3]: 60.17 fL
- MONOCYTE [3]: 1%
- NEUTROPHIL [3]: 8.33%
- NUCLEATED RED BLOOD CELLS [3]: 0 /100WBC
- PLATELET COUNT [3]: 918.33 x10E3/uL
- ALANINE AMINOTRANSFERASE [3]: 68 u/L
- ALBUMIN [3]: 3.93 G/DL
- ALKALINE PHOSPHATASE [3]: 332 u/L
- ASPARTATE AMINOTRANSFERASE [3]: 88.33 u/L
- BLOOD UREA NITROGEN [3]: 12.33 mg/dL
- CARBON DIOXIDE [3]: 36 mmol/L
- CHLORIDE [3]: 97.67 MEQ/L
- CHOLESTEROL [3]: 61 mg/dL
- CREATINE PHOSPHOKINASE [3]: 279 u/L
- CREATININE [3]: 0.1 mg/dL
- GLUCOSE [3]: 140 mg/dL
- LACTATE DEHYDROGENASE [3]: 110.33 u/L
- LIPASE [3]: 9 u/L
- PHOSPHORUS [3]: 9 mg/dL
- POTASSIUM [3]: 5.82 MEQ/L
- SODIUM [3]: 143.77 MEQ/L
- TOTAL BILIRUBIN [3]: 0.17 mg/dL
- TOTAL PROTEIN [3]: 5.7 G/DL
- URIC ACID [3]: 0.77 mg/dL
- ABSOLUTE BASOPHIL [4]: 0 CELLS/uL
- ABSOLUTE EOSINOPHIL [4]: 0 CELLS/uL
- ABSOLUTE LYMPHOCYTE [4]: 7667.33 CELLS/uL
- ABSOLUTE MONOCYTE [4]: 0 CELLS/uL
- ABSOLUTE SEGMENTED NEUTROPHIL [4]: 399.33 CELLS/uL
- BASOPHIL [4]: 0%
- EOSINOPHIL [4]: 0%
- ERYTHROCYTE COUNT [4]: 5.77 x10E6/uL
- HEMATOCRIT [4]: 35.47%
- HEMOGLOBIN [4]: 14.17 G/DL
- LEUKOCYTE COUNT [4]: 8.07 x10E3/uL
- LYMPHOCYTE [4]: 95.33%
- MEAN CORPUSCULAR HEMOGLOBIN [4]: 24.53 pg
- MEAN CORPUSCULAR HEMOGLOBIN CONCENTRATION [4]: 39.97 G/DL
- MEAN CORPUSCULAR VOLUME [4]: 61.43 fL
- MONOCYTE [4]: 0%
- NEUTROPHIL [4]: 4.67%
- NUCLEATED RED BLOOD CELLS [4]: 0 /100WBC
- PLATELET COUNT [4]: 1091.67 x10E3/uL
- ALANINE AMINOTRANSFERASE [4]: 54 u/L
- ALBUMIN [4]: 4.1 G/DL
- ALKALINE PHOSPHATASE [4]: 328.33 u/L
- ASPARTATE AMINOTRANSFERASE [4]: 80 u/L
- BLOOD UREA NITROGEN [4]: 14 mg/dL
- CARBON DIOXIDE [4]: 35.67 mmol/L
- CHLORIDE [4]: 96.33 MEQ/L
- CHOLESTEROL [4]: 66 mg/dL
- CREATINE PHOSPHOKINASE [4]: 238.33 u/L
- CREATININE [4]: 0.14 mg/dL
- GLUCOSE [4]: 145 mg/dL
- LACTATE DEHYDROGENASE [4]: 115.67 u/L
- LIPASE [4]: 9.33 u/L
- PHOSPHORUS [4]: 9.87 mg/dL
- POTASSIUM [4]: 6.09 MEQ/L
- SODIUM [4]: 144 MEQ/L
- TOTAL BILIRUBIN [4]: 0.17 mg/dL
- TOTAL PROTEIN [4]: 6.17 G/DL
- URIC ACID [4]: 0.73 mg/dL
